# In patent US7501425B1, “Bicyclic pyrimidines and bicyclic 3,4-dihydropyprimidines as inhibitors of cellular proliferation” (Warner Lambert Company, priority 1999, dated 2009):
# Structures can show the parent of a compound that is named as a salt.
# How the values were obtained:
# [1] = target: cdk2/cyclinE (Homo sapiens, UniProt P24941); experiment: Cyclin-dependent kinase assay cdk2/cyclinE; assay type: biochemical; details: for inhibition at 40 µM: read-out: cdk2/E % Inhibition at 40 μM; for IC50: read-out: cdk2/E IC50
# Description: (§1) Cyclin-Dependent Kinase Assays (cdk2/cyclinE, cdk2/cyclinA, cdc2/cyclinB)
# (§2) All components except the ATP were added to the wells, and the plate was placed on a plate mixer for 2 minutes. The reaction was begun by addition of [^32P]ATP, and the plate was incubated at 25° C. for 15 minutes. The reaction was terminated by addition of 0.1 mL of 20% TCA. The plate was kept at 4° C. for at least 1 hour to allow the substrate to precipitate. The wells were then washed five times with 0.2 mL of 10% TCA and ^32P incorporation determined with a beta plate counter (Wallac Inc., Gaithersburg, Md.).
# [2] = target: cdk2/cyclinA (Homo sapiens, UniProt P24941); experiment: Cyclin-dependent kinase assay cdk2/cyclinA; assay type: biochemical
# Description: as §1, §2
# [3] = target: cdc2/cyclinB (Homo sapiens, UniProt P06493); experiment: Cyclin-dependent kinase assay cdc2/cyclinB (cdk1/B); assay type: biochemical
# Description: as §1, §2
# [4] = target: cdk4/D (Homo sapiens, UniProt P11802); experiment: Cyclin-Dependent Kinase 4 (cdk4) enzyme assay, 32P incorporation; assay type: biochemical; details: for IC50: 25 μM ATP, retinoblastoma substrate
# Description: A typical assay, for instance, measures inhibitory activity against the cyclin D dependent kinase 4 enzyme (cdk4/D). […] The cdk4 assay was carried out as follows.
# Cyclin-Dependent Kinase 4 (cdk4) Assay
# Enzyme assays for IC50 determinations (Tables 1 and 2) and kinetic evaluation were performed in 96 well filter plates (Millipore MADVN6550). The total volume was 0.1 mL containing a final concentration of 20 mM TRIS (tris[hydroxymethyl]aminomethane), at pH 7.4, 50 mM NaCl, 1 mM dithiothreitol, 10 mM MgCl2, 25 μM ATP containing 0.25 μCi of [^32P]ATP, 20 ng of cdk4, 1 μg of retinoblastoma, and appropriate dilutions of a compound of the present invention. All components except the ATP were added to the wells, and the plate was placed on a plate mixer for 2 minutes. The reaction was started by adding [^32P]ATP and the plate was incubated at 25° C. for 15 minutes. The reaction was terminated by addition of 0.1 mL of 20% trichloroacetic acid (TCA). The plate was kept at 4° C. for at least 1 hour to allow the substrate to precipitate. The wells were then washed five times with 0.2 mL of 10% TCA and ^32p incorporation was determined with a beta plate counter (Wallac Inc., Gaithersburg. MD).
# cdk4/D, sequence (P11802 whole entry, species assumed): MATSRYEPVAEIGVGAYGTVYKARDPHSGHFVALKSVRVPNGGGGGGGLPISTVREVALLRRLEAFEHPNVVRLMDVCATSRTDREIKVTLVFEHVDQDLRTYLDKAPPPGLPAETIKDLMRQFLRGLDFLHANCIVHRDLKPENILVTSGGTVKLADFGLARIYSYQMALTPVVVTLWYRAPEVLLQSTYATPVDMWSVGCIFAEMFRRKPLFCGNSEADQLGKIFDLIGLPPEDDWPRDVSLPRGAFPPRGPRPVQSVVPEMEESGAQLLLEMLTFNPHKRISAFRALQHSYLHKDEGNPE
# cdk4/D, sequence (P24385 whole entry partner, species assumed): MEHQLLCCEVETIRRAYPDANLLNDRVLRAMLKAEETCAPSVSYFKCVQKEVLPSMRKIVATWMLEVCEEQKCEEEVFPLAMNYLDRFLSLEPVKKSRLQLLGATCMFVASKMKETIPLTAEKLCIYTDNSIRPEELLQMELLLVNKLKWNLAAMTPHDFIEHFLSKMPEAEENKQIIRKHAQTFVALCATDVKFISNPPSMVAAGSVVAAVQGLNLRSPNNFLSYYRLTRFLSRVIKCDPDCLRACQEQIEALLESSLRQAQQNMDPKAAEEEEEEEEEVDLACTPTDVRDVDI
# cdc2/cyclinB, sequence (P06493 whole entry, species assumed): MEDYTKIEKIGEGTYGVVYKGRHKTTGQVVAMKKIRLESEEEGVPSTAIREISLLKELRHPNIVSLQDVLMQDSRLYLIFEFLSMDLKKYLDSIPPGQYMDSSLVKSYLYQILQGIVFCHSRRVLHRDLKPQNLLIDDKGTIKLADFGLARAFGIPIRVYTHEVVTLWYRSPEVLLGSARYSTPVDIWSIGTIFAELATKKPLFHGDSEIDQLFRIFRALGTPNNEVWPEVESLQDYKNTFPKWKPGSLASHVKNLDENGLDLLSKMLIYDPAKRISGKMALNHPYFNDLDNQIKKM
# cdc2/cyclinB, sequence (P14635 whole entry partner, species assumed): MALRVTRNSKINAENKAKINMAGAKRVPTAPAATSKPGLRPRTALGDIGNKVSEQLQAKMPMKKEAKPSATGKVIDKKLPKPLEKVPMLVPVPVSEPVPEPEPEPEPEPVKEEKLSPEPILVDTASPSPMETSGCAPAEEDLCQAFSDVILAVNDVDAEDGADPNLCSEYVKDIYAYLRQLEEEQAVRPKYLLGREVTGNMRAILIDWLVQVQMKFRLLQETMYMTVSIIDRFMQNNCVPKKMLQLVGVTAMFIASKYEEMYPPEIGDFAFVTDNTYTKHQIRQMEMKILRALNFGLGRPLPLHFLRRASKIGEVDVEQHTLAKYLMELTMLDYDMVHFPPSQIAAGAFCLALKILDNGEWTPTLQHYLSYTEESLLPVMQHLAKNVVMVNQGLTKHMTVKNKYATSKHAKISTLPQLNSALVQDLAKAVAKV
Compound,inhibition at 40 µM [1] [%],melting point,also measured
"C=CCn1c(=O)c2cnc(Nc3ccc(N4CCN(C)CC4)cc3)nc2n(C(C)C)c1=O [Example 70, 3-Allyl-1-isopropyl-7-[4-(4-methylpiperazin-1-yl)phenylamino]-1H-pyrimido[4,5-d]pyrimidine-2,4-dione]",0,176 to 177 °C,
"Cn1c(=O)ncc2cnc(Nc3ccc(-n4cccn4)cc3)nc21 [Example 47, 1-Methyl-7-[4-(pyrazol-1-yl)phenylamino]pyrimido[4,5-d]pyrimidin-2(1H)-one]",41,> 290 °C (dec.),
"O=C1NCc2cnc(Nc3ccc(-n4cccn4)cc3)nc2N1C1CCCC1 [Example 12, 1-Cyclopentyl-7-[4-(pyrazol-1-yl)phenylamino]-3,4-dihydro-pyrimido[4,5-d]pyrimidin-2(1H)-one]",,,IC50 [1]: 4.6 µM; IC50 [2]: 1.33 µM; IC50 [3]: 12.2 µM; IC50 [4]: 1.8 µM
"CC(C)N1C(=O)NCc2cnc(Nc3ccc(N4CCC(CCCN5CCOCC5)CC4)cc3)nc21 [Example 26, 1-Isopropyl-7-{4-[4-(3-(morpholin-1-yl)propyl)piperidin-1-yl]phenylamino}-3,4-dihydro-pyrimido[4,5-d]pyrimidin-2(1H)-one]",,203 to 205 °C (dec.),IC50 [1]: 27 µM; IC50 [2]: 6.46 µM; IC50 [3]: > 40 µM
"CN1CCN(c2ccc(Nc3ncc4c(n3)N(C3CC5CCC3C5)C(=O)NC4)cc2)CC1 (stereo not drawn) [Example 27, 1-Bicyclo[2.2.1]hept-2-yl-7-[4-(4-methylpiperazin-1-yl)phenylamino]-3,4-dihydro-pyrimido[4,5-d]pyrimidin-2(1H)-one (exo)]",,251 to 254 °C (dec.),IC50 [1]: 1.1 µM; IC50 [2]: 0.53 µM; IC50 [3]: 9.77 µM; IC50 [4]: 0.77 µM
"CN1CCN(c2ccc(Nc3ncc4c(n3)N(C)C(=O)NC4)cc2)CC1.O=C(O)C(F)(F)F [Example 28, 1-Methyl-7-[4-(4-methylpiperazin-1-yl)phenylamino]-3,4-dihydro-pyrimido[4,5-d]pyrimidin-2(1H)-one; compound with trifluoroacetic acid]",22,234 to 235 °C (dec.),inhibition at 40 µM [4]: 15%
"CN1C(=O)NCc2cnc(Nc3ccc(N4CCC(N(C)C)CC4)cc3)nc21.O=C(O)C(F)(F)F [Example 30, 7-{4-[4-(Dimethylamino)piperidin-1-yl]phenylamino}-1-methyl-3,4-dihydro-pyrimido[4,5-d]pyrimidin-2(1H)-one; compound with trifluoroacetic acid]",,190 to 191 °C (dec.),
"CN1C(=O)NCc2cnc(Nc3ccc(N4CCC(O)CC4)cc3)nc21.O=C(O)C(F)(F)F [Example 29, 7-[4-(4-Hydroxypiperidin-1-yl)phenylamino]-1-methyl-3,4-dihydro-pyrimido[4,5-d]pyrimidin-2(1H)-one; Compound with trifluoroacetic acid]",28,228 to 229 °C (dec.),
"CC(C)N1C(=O)NCc2cnc(Nc3ccc(N4CCC(O)CC4)cc3)nc21 [Example 23, 7-[4-(4-Hydroxypiperidin-1-yl)phenylamino]-1-isopropyl-3,4-dihydro-pyrimido[4,5-d]pyrimidin-2(1H)-one]",,> 120 °C (dec.),
"CC(C)n1c(=O)ncc2cnc(Nc3ccc(N4CCN(C)CC4)cc3)nc21 [Example 40, 1-Isopropyl-7-[4-(4-methylpiperazin-1-yl)phenylamino]pyrimido[4,5-d]pyrimidin-2(1H)-one]",,228 to 229 °C (dec.),inhibition at 40 µM [3]: 42%
"C=CCn1c(=O)c2cnc(Nc3ccc(OCCN(CC)CC)cc3)nc2n(C(C)C)c1=O [Example 72, 3-Allyl-7-[4-(2-Diethylaminoethoxy)phenylamino]-1-isopropyl-1H-pyrimido[4,5-d]pyrimidine-2,4-dione]",0,90 to 96 °C,
"CN1C(=O)NCc2cnc(Nc3ccc(-n4cccn4)cc3)nc21.O=C(O)C(F)(F)F [Example 31, 1-Methyl-7-[4-(pyrazol-1-yl)phenylamino]-3,4-dihydro-pyrimido[4,5-d]pyrimidin-2(1H)-one; Compound with trifluoroacetic acid]",21,250 to 251 °C (dec.),inhibition at 40 µM [4]: 18%
"CCN1C(=O)N(c2cc(OC)cc(OC)c2)Cc2cnc(SC)nc21 (hydrate or solvate) [Example 50a, 3-(3,5-Dimethoxy-phenyl)-1-ethyl-7-methylsulfanyl-3,4-dihydro-pyrimido[4,5-d]pyrimidin-2(1H)-one]",,134 to 136 °C,
"CCN(CC)CCOc1ccc(Nc2ncc3c(n2)N(CC)C(=O)N(c2cc(OC)cc(OC)c2)C3)cc1 (as salt: salt) (hydrate or solvate) [Example 53a, 7-[4-(2-Diethylamino-ethoxy)-phenylamino]-3-(3,5-dimethoxy-phenyl)-1-ethyl-3,4-dihydro-pyrimido[4,5-d]pyrimidin-2(1H)-one]",,139 to 141 °C,
"O=C1NCc2cnc(Nc3ccc(-n4cccc4)cc3)nc2N1C1CCCC1 [Example 14, 1-Cyclopentyl-7-[4-(pyrrol-1-yl)phenylamino]-3,4-dihydro-pyrimido[4,5-d]pyrimidin-2(1H)-one]",38,> 200 °C (dec.),
"O=c1ncc2cnc(Nc3ccc(N4CCC(O)CC4)cc3)nc2n1C1CCCC1 [Example 33, 1-Cyclopentyl-7-[4-(4-hydroxypiperidin-1-yl)phenylamino]pyrimido[4,5-d]pyrimidin-2(1H)-one]",,> 185 °C (dec.),
"CN1CCN(c2ccc(Nc3ncc4cnc(=O)n(C)c4n3)cc2)CC1 [Example 45, 1-Methyl-7-[4-(4-methylpiperazin-1-yl)phenylamino]pyrimido[4,5-d]pyrimidin-2(1H)-one]",16,259 to 260 °C (dec.),
"CC(C)N1C(=O)NCc2cnc(Nc3ccc(N4CCN(C)CC4)cc3)nc21 [Example 22, 1-Isopropyl-7-[4-(4-methylpiperazin-1-yl)phenylamino]-3,4-dihydro-pyrimido[4,5-d]pyrimidin-2(1H)-one]",68,234 to 237 °C (dec.),inhibition at 40 µM [3]: 25%
"COc1cc(OC)cc(N2Cc3cnc(SC)nc3N=C2N)c1 [Example 66, 3-(3,5-Dimethoxy-phenyl)-7-methylsulfanyl-3,4-dihydro-pyrimido [4,5-d]pyrimidin-2-ylamine]",,198 to 204 °C,
"CCN(CC)CCOc1ccc(Nc2ncc3cnc(=O)n(C4CCCC4)c3n2)cc1C [Example 34, 1-Cyclopentyl-7-{3-methyl-4-[2-(diethylamino)ethoxy]-phenylamino}pyrimido[4,5-d]pyrimidin-2(1H)-one]",,> 95 °C (dec.),
"CCNc1nc(SC)ncc1C=Nc1cc(OC)cc(OC)c1Cl [Example 61, {5-[(2-Chloro-3,5-dimethoxy-phenylimino)-methyl]-2-methylsulfanyl-pyrimidin-4-yl}-ethyl-amine]",,196.5 to 198.5 °C,
"COc1ccc(Nc2ncc3c(n2)N(C2CCCC2)C(=O)NC3)cc1 [Example 9, 1-Cyclopentyl-7-(4-methoxyphenylamino)-3,4-dihydro-pyrimido[4,5-d]pyrimidin-2(1H)-one]",,247 to 249 °C (dec.),
"CCN(CC)CCCCNc1ncc2c(n1)N(CC)C(=O)N(c1cc(OC)cc(OC)c1)C2 (hydrate or solvate) [Example 53, 7-(4-Diethylamino-butylamino)-3-(3,5-dimethoxy-phenyl)-1-ethyl-3,4-dihydro-pyrimido[4,5-d]pyrimidin-2(1H)-one]",,83 to 85 °C,
O=c1ncc2cnc(Nc3ccc(N4CCC(CCN5CCOCC5)CC4)cc3)nc2n1C1CCCC1 [Example 39],,> 140 °C (dec.),
